Test results reported in paper PMC4704049, “Potential Dual Role of Eugenol in Inhibiting Advanced Glycation End Products in Diabetes: Proteomic and Mechanistic Insights” (Scientific Reports, 2016).

Molecular target: T1, bovine serum albumin (BSA) (Bos taurus, UniProt P02769)
T1 construct: gene ALB
Assay: intrinsic fluorescence quenching (eugenol […])
Format: binding

T1 sequence (P02769 25-607): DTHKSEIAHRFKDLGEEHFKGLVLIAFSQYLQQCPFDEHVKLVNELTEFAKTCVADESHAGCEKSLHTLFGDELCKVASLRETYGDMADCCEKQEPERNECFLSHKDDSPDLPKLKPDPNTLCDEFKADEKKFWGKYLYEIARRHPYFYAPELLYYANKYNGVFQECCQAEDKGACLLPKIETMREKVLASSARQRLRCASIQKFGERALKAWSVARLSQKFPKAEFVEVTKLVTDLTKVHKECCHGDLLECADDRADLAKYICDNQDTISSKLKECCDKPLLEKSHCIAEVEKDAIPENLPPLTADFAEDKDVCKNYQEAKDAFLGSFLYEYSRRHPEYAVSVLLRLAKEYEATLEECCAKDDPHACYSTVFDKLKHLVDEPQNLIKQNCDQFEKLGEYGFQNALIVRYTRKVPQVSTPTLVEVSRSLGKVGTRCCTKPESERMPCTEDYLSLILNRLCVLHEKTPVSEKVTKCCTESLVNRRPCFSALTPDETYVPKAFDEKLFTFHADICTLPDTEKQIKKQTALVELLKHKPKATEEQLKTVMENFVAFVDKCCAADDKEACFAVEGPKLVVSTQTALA

For `C=CCc1ccc(O)c(OC)c1` [EUG, eugenol], the “intrinsic fluorescence quenching (eugenol 1-50 mM)” value was “In the intrinsic fluorescence assay, it was evident that eugenol binds to BSA in a concentration dependent manner”.
